Values of other authors, collected in patent US5321127A, “Antiplatelet and antithrombotic activity of platelet glycoprotein Ib receptor fragments” (priority 1991, dated 1994).

System: vWF binding to platelets
Conditions: literature

Substance: synthetic peptide spanning amino acid residues aspartate235 to lysine262: GpIbα synthetic peptide reported by Katagiri et al. (DVKAMTSNVASVQCDNSDKFPVYKYPGK; UniProt P07359 251-278, looked up, fragment)
- Inhibition of ristocetin-dependent binding of vWF to platelets: inhibited
